In patent US5498632A, “Esters of acyl carnitines with long-chain aliphatic alcohols and pharmaceutical compositions containing same having antibacterial activity” (Sigma-Tau Industrie Farmaceutiche Riunite S.p.A., priority 1992, dated 1996):

Assays:
[1] = tested on: Escherichia coli (92 F); test: MIC in broth, Gram- strains; assay type: cell-based; conditions: 18 h, E. coli (92 F), read-out: Minimal Inhibitory Concentration (MIC)
Summary of the method: (§1)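 Minimal inhibitory concentrations come from a standard microdilution test in Mueller-Hinton broth. Cells are seeded at 5.0×10^4 CFU/ml final and exposed for 18 h at 37 °C.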

[2] = tested on: Pseudomonas aeruginosa (10 E); test: MIC in broth, Gram- strains; assay type: cell-based; conditions: 18 h, read-out: Minimal Inhibitory Concentration (MIC)
Summary of the method: as §1

[3] = tested on: Proteus morganii (D.S.); test: MIC in broth, Gram- strains; assay type: cell-based; conditions: Morganella morganii, 18 h, read-out: Minimal Inhibitory Concentration (MIC)
Summary of the method: as §1

[4] = tested on: Enterobacter aerogenes (UM); test: MIC in broth, Gram- strains; assay type: cell-based; conditions: Klebsiella aerogenes, 18 h, read-out: Minimal Inhibitory Concentration (MIC)
Summary of the method: as §1

[5] = tested on: Serratia marcescens (A/1); test: MIC in broth, Gram- strains; assay type: cell-based; conditions: 18 h, read-out: Minimal Inhibitory Concentration (MIC)
Summary of the method: as §1

[6] = tested on: Klebsiella pneumoniae (7823); test: MIC in broth, Gram- strains; assay type: cell-based; conditions: 18 h, read-out: Minimal Inhibitory Concentration (MIC)
Summary of the method: as §1

[7] = tested on: Klebsiella oxytoca (552); test: MIC in broth, Gram- strains; assay type: cell-based; conditions: 18 h, read-out: Minimal Inhibitory Concentration (MIC)
Summary of the method: as §1

[8] = tested on: Proteus mirabilis (32); test: MIC in broth, Gram- strains; assay type: cell-based; conditions: 18 h, read-out: Minimal Inhibitory Concentration (MIC)
Summary of the method: as §1

[9] = tested on: Escherichia coli (76 F); test: MIC in broth, Gram- strains; assay type: cell-based; conditions: 18 h, E. coli (76 F), read-out: Minimal Inhibitory Concentration (MIC)
Summary of the method: as §1

[10] = tested on: Salmonella typhi (J); test: MIC in broth, Gram- strains; assay type: cell-based; conditions: Salmonella enterica, 18 h, read-out: Minimal Inhibitory Concentration (MIC)
Summary of the method: as §1

[11] = tested on: Klebsiella aerogenes (SH 1082); test: MIC in broth, Gram- strains; assay type: cell-based; conditions: 18 h, read-out: Minimal Inhibitory Concentration (MIC)
Summary of the method: as §1

[12] = tested on: Pseudomonas aeruginosa (3 E); test: MIC in broth, Gram- strains; assay type: cell-based; conditions: 18 h, read-out: Minimal Inhibitory Concentration (MIC)
Summary of the method: as §1

[13] = tested on: Salmonella typhimurium (D.S.); test: MIC in broth, Gram- strains; assay type: cell-based; conditions: Salmonella enterica, 18 h, read-out: Minimal Inhibitory Concentration (MIC)
Summary of the method: as §1

[14] = tested on: Escherichia coli (R 57B); test: MIC in broth, Gram- strains; assay type: cell-based; conditions: 18 h, E. coli (R 57B), read-out: Minimal Inhibitory Concentration (MIC)
Summary of the method: as §1

[15] = tested on: Proteus vulgaris (UM); test: MIC in broth, Gram- strains; assay type: cell-based; conditions: 18 h, read-out: Minimal Inhibitory Concentration (MIC)
Summary of the method: as §1

[16] = tested on: Campylobacter coli LI 048; test: MIC in agar (agar dilution); assay type: cell-based
Method: (§2) In this experiment the activity of ST 722 and ST 712 against Campylobacter and Helicobacter was investigated.
(§3) Campylobacter fetus ATCC 27374, Campylobacter coli LI 048, Campylobacter jejuni 84-ISS, and Helicobacter pylori NCTC 11637.
(§4) The culture medium was Columbia agar base supplemented with 7% (V/V) defribinated horse blood (DHB) for Campylobacter strains, and the same medium additioned with Vitox (Oxoid) for Helicobacter strain.
(§5) The Campylobacter and Helicobacter strains, preserved at -80° C. in DHB containing 10% (V/V) glycerol, were thawed and grown, in their respective culture medium, in culture flasks, which were incubated for 48 hours at 37° C. in a 10% CO2 atmosphere. After this first growth cycle, the bacteria were allowed to go through a second growth cycle in the same conditions as above.
(§6) The bacterial "patina" was then harvested by resuspension in 4-5 ml of Mueller-Hinton broth, the turbidity of which was then assessed according to Mc Farland's criteria (BRAY W. E., Clinical Laboratory Methods, 5th Ed. C. V. MOSBY, St. Louis, Mo. 1957).
(§7) The Helicobacter suspension was adjusted to an approximate concentration of 1.0×10^9 and 1.0×10^8 organisms/ml, while the Campylobacter suspension was adjusted to 1.0×10^7 and 1.0×10^6 organisms/ml.
(§8) With a Steers-type multipoint inoculator (STEERS E., FOLTZ E. L., GRAVES S., RIDEN J., 1959. Inocula-replicating apparatus for routine testing of antibacterial susceptibility to antibiotics. Antibiot. Chemoter. 9: 307-311) 1-μl volumes of the above standardized suspensions were spot-transferred into the wells of a 96-well microtiter plate, which had previously been filled with 0.2 ml/well of Mueller-Hinton agar 5% DHB, containing the test substances at different concentrations.
(§9) The plates was then incubated for 48/72 hours at 37° C. in a 10% CO2 atmosphere.

[17] = tested on: Campylobacter fetus ATCC 27374; test: MIC in agar (agar dilution); assay type: cell-based
Method: as §2, §3, §4, §5, §6, §7, §8, §9

[18] = tested on: Campylobacter jejuni 84-ISS; test: MIC in agar (agar dilution); assay type: cell-based
Method: as §2, §3, §4, §5, §6, §7, §8, §9

[19] = tested on: murine lymphoid organs (spleen and thymus); test: Test 2: weight of murine lymphoid organs after repeated oral administration; assay type: in vivo, mouse (male B6 D2 F1); conditions: 100 mg/kg/day for 7 consecutive days
Method: Evaluation of the effect of repeated oral administrations of ST 722 on the weight of murine lymphoid organs (spleen and thymus).
Male B6 D2 F1 mice (C. River) aged 7 weeks (7-8 animals each group) were orally treated with the substance ST 722 at the dose of 100 mg/kg/day for 7 consecutive days. Twenty-four hours after the last administration, the animals were sacrificed, the organs removed and weighed.

[20] = tested on: peritoneal macrophage; test: Test 4: peritoneal macrophage number in mice; assay type: in vivo, mouse (male B6 D2 F1); conditions: 100 mg/kg/day for 5 consecutive days, oral
Method: Evaluation of the effect of repeated oral administrations of ST 722 on the peritoneal macrophage number in mice.
Male B6 D2 F1 mice (C. River) aged 10 weeks (6 animals each group) were orally treated with the substance ST 722 at the dose of 100 mg/kg/day for 5 consecutive days. Twenty-four hours after the last administration, the animals were sacrificed, the peritoneal exudate cells (PEC) collected and the macrophage number determined.

Question: Which MIC [1] does the source give for `CCCCCCCCCCCOC(=O)CC(C[N+](C)(C)C)OC(=O)CC(C)C` [ST 722, Isovaleryl-L-Carnitine Undecyl Ester Chloride] here?
Answer: 25 µg/mL

Question: What about the MIC [2] of the same compound?
Answer: 50 µg/mL

Question: And the MIC [3]?
Answer: 100 µg/mL

Question: What about the MIC [4] of the same compound?
Answer: 25 µg/mL

Question: And the MIC [5]?
Answer: 50 µg/mL

Question: And the MIC [6]?
Answer: 12.5 µg/mL

Question: And the MIC [7]?
Answer: 12.5 µg/mL

Question: What about the MIC [8] of the same compound?
Answer: > 100 µg/mL

Question: What about the MIC [9] of the same compound?
Answer: 25 µg/mL

Question: What about the MIC [10] of the same compound?
Answer: 25 µg/mL

Question: What about the MIC [11] of the same compound?
Answer: 25 µg/mL

Question: What about the MIC [12] of the same compound?
Answer: 50 µg/mL

Question: What about the MIC [13] of the same compound?
Answer: 25 µg/mL

Question: What about the MIC [14] of the same compound?
Answer: 25 µg/mL

Question: What about the MIC [15] of the same compound?
Answer: 50 µg/mL

Question: What about the MIC ([16]; Campylobacter coli, LI048, I = inoculum of 1.0 × 10^3) of the same compound?
Answer: 3.12 µg/mL

Question: And the MIC in agar ([16]; II = inoculum of 1.0 × 10^4)?
Answer: 3.12 µg/mL

Question: And the MIC ([17]; Campylobacter fetus, ATCC27374, I = inoculum of 1.0 × 10^3)?
Answer: 100 µg/mL

Question: And the MIC in agar ([17]; II = inoculum of 1.0 × 10^4)?
Answer: 100 µg/mL

Question: And the MIC ([18]; I = inoculum of 1.0 × 10^3)?
Answer: 12.5 µg/mL

Question: What about the MIC ([18]; II = inoculum of 1.0 × 10^4) of the same compound?
Answer: 12.5 µg/mL

Question: And the Body weight [19]?
Answer: 22.74 ± 0.37 g

Question: What about the Spleen weight [19] of the same compound?
Answer: 77.88 ± 2.38 mg

Question: What about the Thymus weight [19] of the same compound?
Answer: 52.88 ± 3.20 mg

Question: What about the “immunotoxic effect on the parameters examined” value [19] of the same compound?
Answer: did not provoke any immunotoxic effect

Question: What about the Body weight [20] of the same compound?
Answer: 28.13 ± 1.30 g

Question: What about the “increase in the peritoneal macrophages number” value [20] of the same compound?
Answer: about 60%

Question: What about the “toxic effect in PEC macrophage population” value [20] of the same compound?
Answer: No toxic effect has been observed

Question: And the “PEC M.phi.” value ([20]; 6 pooled samples)?
Answer: 63%
